Laboratory results from the supplement of paper PMC10883282.
± gives the standard deviation of the averaged measurements.

Columns and labels:
Assay in all cases: relative viability vs DMSO control (72 h) (fraction); higher = more viable cells
[1] = tested on: SW684
Method in brief: (§1)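 Sarcoma cell lines were seeded in 384-well plates at densities chosen for 80–90% confluence, then 24 h later given 2.5 µl of serially diluted compound drawn from source plates spanning 10 mM to 0.0002 mM. They were held 72 h at 37 °C, 5% CO2, with 0.1% DMSO vehicle and a 5 µM positive control included. Relative viability was read with ATPLite as percent growth and averaged over up to triplicate wells. Rescaling placed full at 1 and none at 0.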

[2] = tested on: A204
Method in brief: as §1

[3] = tested on: SK-ES-1
Method in brief: as §1

[4] = tested on: G401
Method in brief: as §1

[5] = tested on: SK-LMS-1
Method in brief: as §1

[6] = tested on: HS729
Method in brief: as §1

[7] = tested on: SW872
Method in brief: as §1

[8] = tested on: MES-SA
Method in brief: as §1

[9] = tested on: SYO-1
Method in brief: as §1

[10] = tested on: SW1353
Method in brief: as §1

[11] = tested on: SW982
Method in brief: as §1

[12] = tested on: KHOS-240S
Method in brief: as §1

COc1cc(CCc2cc(NC(=O)c3ccc(N4CC(C)NC(C)C4)cc3)n[nH]2)cc(OC)c1 (configuration not stated) [AZD-4547]
Settings	relative viability
[1], 0.00017 µM	1.11 ± 0.047
[1], 0.00051 µM	1.1 ± 0.059
[1], 0.00152 µM	1.12 ± 0.019
[1], 0.00457 µM	1.14 ± 0.033
[1], 0.01372 µM	1.07 ± 0.019
[1], 0.04115 µM	1.07 ± 0.033
[1], 0.1235 µM	1.06 ± 0.043
[1], 0.3704 µM	1.06 ± 0.031
[1], 1.111 µM	1.08 ± 0.051
[1], 3.333 µM	1.08 ± 0.04
[1], 10 µM	0.999 ± 0.051
[2], 0.00017 µM	1.04 ± 0.011
[2], 0.00051 µM	1.06 ± 0.015
[2], 0.00152 µM	1.04 ± 0.015
[2], 0.00457 µM	1.02 ± 0.033
[2], 0.01372 µM	1.02 ± 0.044
[2], 0.04115 µM	0.841 ± 0.062
[2], 0.1235 µM	0.714 ± 0.017
[2], 0.3704 µM	0.625 ± 0.034
[2], 1.111 µM	0.556 ± 0.05
[2], 3.333 µM	0.463 ± 0.01
[2], 10 µM	0.274 ± 0.011
[3], 0.00017 µM	1.02 ± 0.033
[3], 0.00051 µM	1.02 ± 0.039
[3], 0.00152 µM	1.01 ± 0.067
[3], 0.00457 µM	1 ± 0.056
[3], 0.01372 µM	1.05 ± 0.1
[3], 0.04115 µM	0.947 ± 0.083
[3], 0.1235 µM	0.928 ± 0.088
[3], 0.3704 µM	0.878 ± 0.017
[3], 1.111 µM	0.821 ± 0.04
[3], 3.333 µM	0.483 ± 0.024
[3], 10 µM	0.141 ± 0.004
[4], 0.00017 µM	1 ± 0.053
[4], 0.00051 µM	0.999 ± 0.042
[4], 0.00152 µM	0.964 ± 0.06
[4], 0.00457 µM	0.976 ± 0.016
[4], 0.01372 µM	0.9 ± 0.052
[4], 0.04115 µM	0.845 ± 0.047
[4], 0.1235 µM	0.706 ± 0.033
[4], 0.3704 µM	0.589 ± 0.0072
[4], 1.111 µM	0.486 ± 0.061
[4], 3.333 µM	0.356 ± 0.059
[4], 10 µM	0.136 ± 0.013
[5], 0.00017 µM	0.9811 ± 0.0063
[5], 0.00051 µM	0.953 ± 0.04
[5], 0.00152 µM	0.944 ± 0.013
[5], 0.00457 µM	0.993 ± 0.042
[5], 0.01372 µM	0.938 ± 0.044
[5], 0.04115 µM	0.991 ± 0.017
[5], 0.1235 µM	0.954 ± 0.021
[5], 0.3704 µM	0.9652 ± 0.0074
[5], 1.111 µM	0.986 ± 0.023
[5], 3.333 µM	0.965 ± 0.046
[5], 10 µM	0.645 ± 0.023
[6], 0.00017 µM	1.02 ± 0.038
[6], 0.00051 µM	0.918 ± 0.023
[6], 0.00152 µM	0.914 ± 0.044
[6], 0.00457 µM	0.901 ± 0.048
[6], 0.01372 µM	0.827 ± 0.064
[6], 0.04115 µM	0.83 ± 0.033
[6], 0.1235 µM	0.65 ± 0.0079
[6], 0.3704 µM	0.627 ± 0.059
[6], 1.111 µM	0.57 ± 0.055
[6], 3.333 µM	0.473 ± 0.027
[6], 10 µM	0.265 ± 0.016
[7], 0.00017 µM	1.05 ± 0.033
[7], 0.00051 µM	1 ± 0.025
[7], 0.00152 µM	1 ± 0.038
[7], 0.00457 µM	0.991 ± 0.042
[7], 0.01372 µM	0.987 ± 0.041
[7], 0.04115 µM	0.976 ± 0.045
[7], 0.1235 µM	0.963 ± 0.023
[7], 0.3704 µM	0.954 ± 0.067
[7], 1.111 µM	0.926 ± 0.066
[7], 3.333 µM	0.725 ± 0.047
[7], 10 µM	0.465 ± 0.025
[8], 0.00017 µM	0.886 ± 0.052
[8], 0.00051 µM	0.888 ± 0.042
[8], 0.00152 µM	0.92 ± 0.05
[8], 0.00457 µM	0.921 ± 0.015
[8], 0.01372 µM	0.894 ± 0.027
[8], 0.04115 µM	0.89 ± 0.045
[8], 0.1235 µM	0.789 ± 0.015
[8], 0.3704 µM	0.708 ± 0.012
[8], 1.111 µM	0.655 ± 0.017
[8], 3.333 µM	0.554 ± 0.02
[8], 10 µM	0.266 ± 0.01
[9], 0.00017 µM	0.945 ± 0.058
[9], 0.00051 µM	0.864 ± 0.034
[9], 0.00152 µM	0.836 ± 0.07
[9], 0.00457 µM	0.763 ± 0.069
[9], 0.01372 µM	0.672 ± 0.11
[9], 0.04115 µM	0.637 ± 0.11
[9], 0.1235 µM	0.588 ± 0.1
[9], 0.3704 µM	0.559 ± 0.087
[9], 1.111 µM	0.519 ± 0.07
[9], 3.333 µM	0.408 ± 0.037
[9], 10 µM	0.224 ± 0.03
[10], 0.00017 µM	1.06 ± 0.011
[10], 0.00051 µM	1.03 ± 0.021
[10], 0.00152 µM	1.03 ± 0.021
[10], 0.00457 µM	0.981 ± 0.056
[10], 0.01372 µM	0.938 ± 0.032
[10], 0.04115 µM	0.886 ± 0.043
[10], 0.1235 µM	0.893 ± 0.043
[10], 0.3704 µM	0.849 ± 0.067
[10], 1.111 µM	0.821 ± 0.026
[10], 3.333 µM	0.829 ± 0.051
[10], 10 µM	0.595 ± 0.027
[11], 0.00017 µM	1 ± 0.045
[11], 0.00051 µM	1 ± 0.033
[11], 0.00152 µM	1.02 ± 0.014
[11], 0.00457 µM	1.018 ± 0.0076
[11], 0.01372 µM	0.982 ± 0.047
[11], 0.04115 µM	1 ± 0.013
[11], 0.1235 µM	1 ± 0.025
[11], 0.3704 µM	0.995 ± 0.037
[11], 1.111 µM	0.922 ± 0.071
[11], 3.333 µM	0.591 ± 0.021
[11], 10 µM	0.206 ± 0.015
[12], 0.00017 µM	1.04 ± 0.027
[12], 0.00051 µM	1.07 ± 0.048
[12], 0.00152 µM	1.036 ± 0.0091
[12], 0.00457 µM	1.02 ± 0.03
[12], 0.01372 µM	1.02 ± 0.021
[12], 0.04115 µM	0.9306 ± 0.0084
[12], 0.1235 µM	0.841 ± 0.017
[12], 0.3704 µM	0.784 ± 0.0084
[12], 1.111 µM	0.72 ± 0.04
[12], 3.333 µM	0.619 ± 0.05
[12], 10 µM	0.288 ± 0.02
